Test results: patent US9624170B2, “4-(piperrazin-1-yl)-pyrrolidin-2-one compounds as monoacylglycerol lipase (MAGL) inhibitors” (TAKEDA PHARMACEUTICAL COMPANY LIMITED, priority 2013, dated 2017)

Target: T1, human MAGL (His-hMAGL) (Homo sapiens, UniProt Q99685)
T1 construct: made in house; host or cells: Escherichia coli BL21(DE3)
T1 sequence (Q99685 1-303): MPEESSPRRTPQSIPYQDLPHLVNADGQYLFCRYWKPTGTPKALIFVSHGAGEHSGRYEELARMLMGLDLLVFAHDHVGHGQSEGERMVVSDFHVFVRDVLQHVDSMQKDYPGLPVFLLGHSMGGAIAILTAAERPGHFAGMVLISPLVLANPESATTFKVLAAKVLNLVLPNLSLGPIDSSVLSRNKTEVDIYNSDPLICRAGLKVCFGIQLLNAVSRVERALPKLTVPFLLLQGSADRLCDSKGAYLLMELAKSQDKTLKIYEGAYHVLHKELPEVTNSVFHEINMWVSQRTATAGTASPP
Experiment: Measurement of MAGL inhibitory activity by mass spectrometry
Assay type: biochemical
Conditions: MAGL inhibitory rate, test compound 10 μM, His-hMAGL, substrate 2-arachidonylglycerol, RapidFire-mass spectrometry
Summary of the method: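 His-tagged human MAGL was reacted with 150 μM 2-arachidonylglycerol substrate (stock, added by 5 μL) for 10 min at room temperature, then stopped with formic acid. Arachidonic acid product was quantified by RapidFire–triple-quadrupole MS in negative SRM mode, corrected by arachidonic acid-d8, and converted to percent inhibition.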

| Compound | inhibition at 10 µM [%] |
| --- | --- |
| O=C(c1nccs1)N1CCN(C2CC(=O)N(c3cccc(-c4ccc(OC(F)(F)F)cc4)c3)C2)CC1 (centres unmarked) [Example 292, 4-(4-(1,3-thiazol-2-ylcarbonyl)piperazin-1-yl)-1-(4′-(trifluoromethoxy)biphenyl-3-yl)pyrrolidin-2-one] | 93 |
| O=C(c1nccs1)N1CCN(C2CC(=O)N(c3cccc(-c4cccc(Cl)c4Cl)c3)C2)CC1 (centres unmarked) [Example 293, 1-(2′,3′-dichlorophenyl-3-yl)-4-(4-(1,3-thiazol-2-ylcarbonyl)piperazin-1-yl)pyrrolidin-2-one] | 103 |
| O=C(c1nccs1)N1CCN(C2CC(=O)N(c3cccc(-c4csc5ccccc45)c3)C2)CC1 (centres unmarked) [Example 294, 1-(3-(1-benzothiophen-3-yl)phenyl)-4-(4-(1,3-thiazol-2-ylcarbonyl)piperazin-1-yl)pyrrolidin-2-one] | 100 |
| N#Cc1ccc(-c2cccc(N3CC(N4CCN(C(=O)c5nccs5)CC4)CC3=O)c2)cc1 (centres unmarked) [Example 295, 3′-(2-oxo-4-(4-(1,3-thiazol-2-ylcarbonyl)piperazin-1-yl)pyrrolidin-1-yl)biphenyl-4-carbonitrile] | 98 |
| O=C(c1nccs1)N1CCN(C2CC(=O)N(c3cccc(-c4ccc(F)cc4F)c3)C2)CC1 (centres unmarked) [Example 296, 1-(2′,4′-difluorobiphenyl-3-yl)-4-(4-(1,3-thiazol-2-ylcarbonyl)piperazin-1-yl)pyrrolidin-2-one] | 102 |
| O=C(c1nccs1)N1CCN(C2CC(=O)N(c3cccc(-c4cccc(OC(F)(F)F)c4)c3)C2)CC1 (centres unmarked) [Example 297, 4-(4-(1,3-thiazol-2-ylcarbonyl)piperazin-1-yl)-1-(3′-(trifluoromethoxy)biphenyl-3-yl)pyrrolidin-2-one] | 103 |
| O=C(c1nccs1)N1CCN(C2CC(=O)N(c3cccc(-c4ccccc4OC(F)(F)F)c3)C2)CC1 (centres unmarked) [Example 298, 4-(4-(1,3-thiazol-2-ylcarbonyl)piperazin-1-yl)-1-(2′-(trifluoromethoxy)biphenyl-3-yl)pyrrolidin-2-one] | 101 |
| O=C(c1nccs1)N1CCN(C2CC(=O)N(c3cccc(-c4cccc(F)c4F)c3)C2)CC1 (centres unmarked) [Example 299, 1-(2′,3′-difluorobiphenyl-3-yl)-4-(4-(1,3-thiazol-2-ylcarbonyl)piperazin-1-yl)pyrrolidin-2-one] | 102 |
| O=C(c1nccs1)N1CCN(C2CC(=O)N(c3cccc(-c4cc(Cl)ccc4Cl)c3)C2)CC1 (centres unmarked) [Example 300, 1-(2′,5′-dichlorobiphenyl-3-yl)-4-(4-(1,3-thiazol-2-ylcarbonyl)piperazin-1-yl)pyrrolidin-2-one] | 101 |
| Cc1cc(F)ccc1-c1cccc(N2CC(N3CCN(C(=O)c4nccs4)CC3)CC2=O)c1 (centres unmarked) [Example 301, 1-(4′-fluoro-2′-methylbiphenyl-3-yl)-4-(4-(1,3-thiazol-2-ylcarbonyl)piperazin-1-yl)pyrrolidin-2-one] | 104 |
| CS(=O)(=O)Nc1ccccc1-c1cccc(N2CC(N3CCN(C(=O)c4nccs4)CC3)CC2=O)c1 (centres unmarked) [Example 302, N-(3′-(2-oxo-4-(4-(1,3-thiazol-2-ylcarbonyl)piperazin-1-yl)pyrrolidin-1-yl)biphenyl-2-yl)methanesulfonamide] | 98 |
| CC(=O)Nc1ccccc1-c1cccc(N2CC(N3CCN(C(=O)c4nccs4)CC3)CC2=O)c1 (centres unmarked) [Example 303, N-(3′-(2-oxo-4-(4-(1,3-thiazol-2-ylcarbonyl)piperazin-1-yl)pyrrolidin-1-yl)biphenyl-2-yl)acetamide] | 88 |
| O=C(c1nccs1)N1CCN(C2CC(=O)N(c3cccc(-c4ccc(Cl)cc4F)c3)C2)CC1 (centres unmarked) [Example 304, 1-(4′-chloro-2′-fluorobiphenyl-3-yl)-4-(4-(1,3-thiazol-2-ylcarbonyl)piperazin-1-yl)pyrrolidin-2-one] | 100 |
| O=C(c1nccs1)N1CCN(C2CC(=O)N(c3cccc(-c4ccc(C(F)(F)F)cc4Cl)c3)C2)CC1 (centres unmarked) [Example 305, 1-(2′-chloro-4′-(trifluoromethyl)biphenyl-3-yl)-4-(4-(1,3-thiazol-2-ylcarbonyl)piperazin-1-yl)pyrrolidin-2-one] | 96 |
| O=C(c1nccs1)N1CCN(C2CC(=O)N(c3cccc(-c4ccccc4N4CCOCC4)c3)C2)CC1 (centres unmarked) [Example 306, 1-(2′-(morpholin-4-yl)biphenyl-3-yl)-4-(4-(1,3-thiazol-2-ylcarbonyl)piperazin-1-yl)pyrrolidin-2-one] | 102 |
| O=C(c1nccs1)N1CCN(C2CC(=O)N(c3cccc(-c4cccc5[nH]ccc45)c3)C2)CC1 (centres unmarked) [Example 307, 1-(3-(1H-indol-4-yl)phenyl)-4-(4-(1,3-thiazol-2-ylcarbonyl)piperazin-1-yl)pyrrolidin-2-one] | 103 |

| Compound | inhibition at 10 µM [%] |
| --- | --- |
| O=C(O)c1cccc(-c2cccc(N3CC(N4CCN(C(=O)c5nccs5)CC4)CC3=O)c2)c1 (centres unmarked) [Example 308, 3′-(2-oxo-4-(4-(1,3-thiazol-2-ylcarbonyl)piperazin-1-yl)pyrrolidin-1-yl)biphenyl-3-carboxylic acid] | 98 |
| CC(C)Oc1ccccc1-c1cccc(N2CC(N3CCN(C(=O)c4nccs4)CC3)CC2=O)c1 (centres unmarked) [Example 309, 1-(2′-isopropoxybiphenyl-3-yl)-4-(4-(1,3-thiazol-2-ylcarbonyl)piperazin-1-yl)pyrrolidin-2-one] | 103 |
| COc1cc(C(F)(F)F)ccc1-c1cccc(N2CC(N3CCN(C(=O)c4nccs4)CC3)CC2=O)c1 (centres unmarked) [Example 310, 1-(2′-methoxy-4′-(trifluoromethyl)biphenyl-3-yl)-4-(4-(1,3-thiazol-2-ylcarbonyl)piperazin-1-yl)pyrrolidin-2-one] | 98 |
| O=C(c1nccs1)N1CCN(C2CC(=O)N(c3cccc(-c4cccc5ccccc45)c3)C2)CC1 (centres unmarked) [Example 311, 1-(3-(1-naphthyl)phenyl)-4-(4-(1,3-thiazol-2-ylcarbonyl)piperazin-1-yl)pyrrolidin-2-one] | 103 |
| Cc1nn(C)c(C)c1-c1cccc(N2CC(N3CCN(C(=O)c4nccs4)CC3)CC2=O)c1 (centres unmarked) [Example 312] | 101 |
| O=C(c1nccs1)N1CCN(C2CC(=O)N(c3cccc(-c4cccc5ccsc45)c3)C2)CC1 (centres unmarked) [Example 313, 1-(3-(1-benzothiophen-7-yl)phenyl)-4-(4-(1,3-thiazol-2-ylcarbonyl)piperazin-1-yl)pyrrolidin-2-one] | 101 |
| O=C(c1nccs1)N1CCN(C2CC(=O)N(c3cccc(-c4cccc5c4OCC5)c3)C2)CC1 (centres unmarked) [Example 314, 1-(3-(2,3-dihydro-1-benzofuran-7-yl)phenyl)-4-(4-(1,3-thiazol-2-ylcarbonyl)piperazin-1-yl)pyrrolidin-2-one] | 104 |
| O=C(c1nccs1)N1CCN(C2CC(=O)N(c3cccc(-c4ccc(F)c(C(F)(F)F)c4)c3)C2)CC1 (centres unmarked) [Example 315, 1-(4′-fluoro-3′-(trifluoromethyl)biphenyl-3-yl)-4-(4-(1,3-thiazol-2-ylcarbonyl)piperazin-1-yl)pyrrolidin-2-one] | 101 |
| N#Cc1ccc(-c2cccc(N3CC(N4CCN(C(=O)c5nccs5)CC4)CC3=O)c2)c(F)c1 (centres unmarked) [Example 316, 2-fluoro-3′-(2-oxo-4-(4-(1,3-thiazol-2-ylcarbonyl)piperazin-1-yl)pyrrolidin-1-yl)biphenyl-4-carbonitrile] | 97 |
| O=C(c1nccs1)N1CCN(C2CC(=O)N(c3cccc(-c4cccc5cn[nH]c45)c3)C2)CC1 (centres unmarked) [Example 317, 1-(3-(1H-indazol-7-yl)phenyl)-4-(4-(1,3-thiazol-2-ylcarbonyl)piperazin-1-yl)pyrrolidin-2-one] | 99 |
| O=C(c1nccs1)N1CCN(C2CC(=O)N(c3cccc(-c4cccc5[nH]ncc45)c3)C2)CC1 (centres unmarked) [Example 318, 1-(3-(1H-indazol-4-yl)phenyl)-4-(4-(1,3-thiazol-2-ylcarbonyl)piperazin-1-yl)pyrrolidin-2-one] | 103 |
| NC(=O)Cc1cccc(-c2cccc(N3CC(N4CCN(C(=O)c5nccs5)CC4)CC3=O)c2)c1 (centres unmarked) [Example 319, 2-(3′-(2-oxo-4-(4-(1,3-thiazol-2-ylcarbonyl)piperazin-1-yl)pyrrolidin-1-yl)biphenyl-3-yl)acetamide] | 102 |
| O=C(c1nccs1)N1CCN(C2CC(=O)N(c3cccc(-c4cccc5cc[nH]c45)c3)C2)CC1 (centres unmarked) [Example 320, 1-(3-(1H-indol-7-yl)phenyl)-4-(4-(1,3-thiazol-2-ylcarbonyl)piperazin-1-yl)pyrrolidin-2-one] | 100 |
| O=C(c1cccc(-c2cccc(N3CC(N4CCN(C(=O)c5nccs5)CC4)CC3=O)c2)c1)N1CCCC1 (centres unmarked) [Example 321, 1-(3′-(pyrrolidin-1-ylcarbonyl)biphenyl-3-yl)-4-(4-(1,3-thiazol-2-ylcarbonyl)piperazin-1-yl)pyrrolidin-2-one] | 102 |
| Cc1cc(C#N)ccc1-c1cccc(N2CC(N3CCN(C(=O)c4nccs4)CC3)CC2=O)c1 (centres unmarked) [Example 322, 2-methyl-3′-(2-oxo-4-(4-(1,3-thiazol-2-ylcarbonyl)piperazin-1-yl)pyrrolidin-1-yl)biphenyl-4-carbonitrile] | 103 |
| COc1ccsc1-c1cccc(N2CC(N3CCN(C(=O)c4nccs4)CC3)CC2=O)c1 (centres unmarked) [Example 323, 1-(3-(3-methoxy-2-thienyl)phenyl)-4-(4-(1,3-thiazol-2-ylcarbonyl)piperazin-1-yl)pyrrolidin-2-one] | 100 |
